The source of these data is patent US6649626B1, “N-substituted 1-(lactone) isoquinolones for treating nervous disorders” (Centre National de la Recherche Scientifique (CNRS), priority 1999, dated 2003).

In test [1] the target is T1, α1β2γ2 subtype of the GABA receptor (Rattus norvegicus, UniProt P18508+P62813+P63138).
T1 construct: expressed in transfected cells; host or cells: Xenopus laevis oocytes (cRNA injection)
Briefly: Electrophysiology: modulation of GABA currents in Xenopus oocytes expressing recombinant GABA-A receptors. It counts as cell-based. Particulars: for % stimulation of the GABA currents / % stimulation of the GABA currents (100 μM): α1β2γ2 in oocytes; for % stimulation of the GABA currents (100 μM): 100 μM compound with GABA.

Test [2] relates to GABA-binding site of the GABA-A receptor. Briefly: Displacement of tritiated muscimol from brain membranes. Particulars: for Muscimol: stimulation: stimulation instead of displacement.
The test system of test [3] is picrotoxin-binding site of the GABA-A receptor. The experiment in a line: Displacement of 35S-TBPS from brain membranes. On the set-up: species or system rats. On the technique in general: Loss of bound radioactivity is the signal in a displacement assay; it reports binding, not function.
The subject of test [4] is benzodiazepine-binding site of the GABA-A receptor. Briefly: Displacement of tritiated flunitrazepam from brain membranes.
Test [5] has as its target T2, benzodiazepine-binding site of the GABA-A receptor (Rattus norvegicus, UniProt P18508+P62813).
T2 construct: IC50 Flu / BZ receptor; other: cerebellum (ce); other: cerebellum (ce; BZ1 subtype); other: 10 μM; cerebellum; other: 100 μM; other: 0.5 μM
The description is as above. Particulars: for inhibition at 100 µM: read-out: Inhibition of the tritiated ligands % Flu (100 μM).

In test [6] the target is Ro15-4513 binding (GABA-A receptor). The experiment in a line: Ro15-4513 displacement. Particulars: for Ro15-4513 displacement: 100 μM.

SMILES strings stand for the structures. Bounds are passed on as bounds.

T1 sequence (P62813 28-455): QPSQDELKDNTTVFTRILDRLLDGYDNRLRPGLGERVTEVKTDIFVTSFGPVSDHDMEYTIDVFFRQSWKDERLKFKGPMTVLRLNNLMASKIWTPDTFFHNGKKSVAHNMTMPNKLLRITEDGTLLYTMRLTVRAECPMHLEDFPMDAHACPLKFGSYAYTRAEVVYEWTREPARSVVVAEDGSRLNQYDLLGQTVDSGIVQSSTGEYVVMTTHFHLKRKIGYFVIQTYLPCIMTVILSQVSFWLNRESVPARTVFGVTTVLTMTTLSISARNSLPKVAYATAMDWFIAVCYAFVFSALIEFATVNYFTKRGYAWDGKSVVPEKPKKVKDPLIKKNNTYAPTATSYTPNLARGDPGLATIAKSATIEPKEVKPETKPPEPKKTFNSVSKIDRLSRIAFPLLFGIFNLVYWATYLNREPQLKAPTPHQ
T1 sequence (P63138 25-474 limits assumed): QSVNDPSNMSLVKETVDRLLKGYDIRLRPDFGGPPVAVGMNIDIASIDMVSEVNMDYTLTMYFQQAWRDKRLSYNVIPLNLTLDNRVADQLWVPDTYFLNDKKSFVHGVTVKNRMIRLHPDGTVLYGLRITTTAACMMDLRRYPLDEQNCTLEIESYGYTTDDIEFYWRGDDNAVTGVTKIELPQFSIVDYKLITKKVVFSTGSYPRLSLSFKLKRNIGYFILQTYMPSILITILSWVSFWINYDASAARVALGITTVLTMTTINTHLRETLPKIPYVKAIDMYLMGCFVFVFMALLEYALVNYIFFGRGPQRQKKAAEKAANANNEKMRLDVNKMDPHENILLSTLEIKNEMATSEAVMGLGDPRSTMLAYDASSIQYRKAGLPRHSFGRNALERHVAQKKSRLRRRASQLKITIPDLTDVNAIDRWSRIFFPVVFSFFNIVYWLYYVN
T1 sequence (P18508 39-466): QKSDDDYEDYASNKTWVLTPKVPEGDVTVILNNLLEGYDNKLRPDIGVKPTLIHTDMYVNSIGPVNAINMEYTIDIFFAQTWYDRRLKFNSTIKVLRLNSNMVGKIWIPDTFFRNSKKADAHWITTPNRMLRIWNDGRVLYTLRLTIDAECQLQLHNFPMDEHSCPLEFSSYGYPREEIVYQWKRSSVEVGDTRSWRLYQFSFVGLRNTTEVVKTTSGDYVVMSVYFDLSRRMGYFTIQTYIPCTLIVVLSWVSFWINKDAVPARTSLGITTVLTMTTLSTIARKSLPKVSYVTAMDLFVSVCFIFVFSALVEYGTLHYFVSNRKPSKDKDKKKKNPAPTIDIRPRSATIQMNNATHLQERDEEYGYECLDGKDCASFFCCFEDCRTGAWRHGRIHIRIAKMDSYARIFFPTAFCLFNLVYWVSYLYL
T2 sequence (P62813 28-455): as the sequence (P62813 28-455) above
T2 sequence (P18508 39-466): as the sequence (P18508 39-466) above
T2 sequence (P63138 26-474 partner): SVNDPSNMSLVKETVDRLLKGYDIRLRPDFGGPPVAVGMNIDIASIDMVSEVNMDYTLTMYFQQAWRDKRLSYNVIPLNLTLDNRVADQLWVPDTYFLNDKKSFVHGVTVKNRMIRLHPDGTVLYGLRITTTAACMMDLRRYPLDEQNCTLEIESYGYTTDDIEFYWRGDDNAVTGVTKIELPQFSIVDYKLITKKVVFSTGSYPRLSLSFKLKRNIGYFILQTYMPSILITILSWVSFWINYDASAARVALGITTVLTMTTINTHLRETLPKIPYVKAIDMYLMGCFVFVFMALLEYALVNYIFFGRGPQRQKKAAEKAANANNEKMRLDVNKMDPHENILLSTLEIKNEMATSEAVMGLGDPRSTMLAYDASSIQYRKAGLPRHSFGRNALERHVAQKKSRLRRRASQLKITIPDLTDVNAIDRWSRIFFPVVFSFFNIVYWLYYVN

Regarding `O=C1C=CC(C2c3ccccc3CCN2C(=O)Oc2ccccc2)O1` (racemic) [Compound 58], the “% stimulation of the GABA currents” value in test [1] (0.1 μM compound) is 0%. The “% stimulation of the GABA currents (100 μM)” value (“% stimulation … (100 μM)” for short) in test [1] is “+159 ± 8%”. This compound displayed a Displacement of muscimol in test [2] (100 μM) of 100 μM = 0%. Further, in test [3] (10 μM), the “Inhibition of the tritiated ligands % TBPS” value amounted to 0%. For the same compound, the “Inhibition of the tritiated ligands % Flu” value in test [4] (0.5 μM, tissue not stated) is 0%; in test [4] (10 μM, tissue not stated), 45%. Also, the “Inhibition of the tritiated ligands % Flu (100 μM)” value in test [5] (tissue not stated) is 70%.
Consider `Cc1ccc(S(=O)(=O)N2CCc3ccccc3C2[C@H]2CCC(=O)O2)cc1` (mixture of isomers) [Compound 67, (±)-(1R,2′R)-1-(2,3,4,5-Tetrahydro-5-oxo-2-furyl)-2-N-p-toluenesulfonyl-1,2,3,4-tetrahydroisoquinoline], for which the “% stimulation of the GABA currents” value in test [1] (0.1 μM compound) is listed as 7 ± 5%. For the same compound, the “% stimulation … (100 μM)” value in test [1] is given as “+579 ± 106%”; in test [1] (listed as (+/−) 67), “+579%”. In addition, the “Muscimol: stimulation” value in test [2] (100 μM) was “Muscimol: 5-10% stimulation at 100 μM”. In addition, the “Inhibition of the tritiated ligands % Flu” value in test [4] (0.5 μM, tissue not stated) came to 0%; in test [5] (10 μM, tissue not stated), 20%. The “Inhibition of the tritiated ligands % Flu (100 μM)” value is listed as 50% in test [5] (cerebellum) and 30% in test [5] (cortex).
Regarding `O=C1CCC(C2c3ccccc3CCN2S(=O)(=O)c2ccc(OC(F)(F)F)cc2)O1` (mixture of isomers) [Compound 71], the IC50 in test [6] is > 100 µM; in test [5] (tissue not stated, read-out: IC50 Flu / BZ receptor) it was > 100 µM. For the same compound, the “Muscimol: stimulation” value in test [2] (100 μM) is “weak stimulation at 100 μM in the cortex alone”.
Consider `O=C1C=CC(C2c3ccccc3CCN2C(=O)Cc2ccccc2)O1` (racemic) [Compound 55], for which the “% stimulation of the GABA currents” value in test [1] (0.1 μM compound) is 0%. The “% stimulation … (100 μM)” value in test [1] is “+33 ± 4%”. This compound also had a Displacement of muscimol in test [2] (100 μM) of 100 μM = 0%. The “Inhibition of the tritiated ligands % Flu” value is recorded as 30% in test [4] (0.5 μM, cerebellum); 20% in test [4] (0.5 μM, cortex); 80% in test [4] (10 μM, cerebellum); 70% in test [4] (10 μM, cortex). Moreover, the “Inhibition of the tritiated ligands % Flu (100 μM)” value in test [5] (tissue not stated) was 95%.
On to `O=C1C=C[C@H]([C@H]2c3ccccc3CCN2C(=S)Oc2ccccc2)O1` (racemic) [Compound 63], for which, in test [1], the “% stimulation … (100 μM)” value is “+155 ± 47%”. Further, in test [6], the Ro15-4513 displacement entry is “Muscimol: 100 μM = 0% Ro15-4513: 100 μM = 0%”. Besides, the Displacement of muscimol entry in test [2] (100 μM) is reported as “Muscimol: 100 μM = 0% Ro15-4513: 100 μM = 0%”. Besides, in test [5] (tissue not stated), the inhibition at 100 µM turned out to be 0%.
`CC1=C[C@@H]([C@H]2c3cc4c(cc3CCN2C)OCO4)OC1=O` (racemic) [Compound 43]: the “% stimulation … (100 μM)” value in test [1] was −7 ± 2%. In addition, the Displacement of muscimol in test [2] (0.5 μM) is 30%; in test [2] (10 μM) it was 45%; in test [2] (100 μM), 50%. In addition, in test [3] (10 μM), the “Inhibition of the tritiated ligands % TBPS” value is on record as 10%. Further, the inhibition at 100 µM in test [5] (tissue not stated) is ~20%.
For the compound `COc1cc2c(cc1OC)C(C1CCC(=O)O1)N(C)CC2` (racemic) [Compound 28], the “% stimulation of the GABA currents” value in test [1] (200 μM compound) came out at 200 μM = +2%. Moreover, the Ro15-4513 displacement entry in test [6] is recorded as “Ro15-4513 displacement 100 μM = 50%”. Also, the inhibition at 100 µM in test [5] (tissue not stated) is 50%.
As for `O=C1C=CC(C2c3ccccc3CCN2C(=O)OCc2ccccc2)O1` (racemic) [Compound 50], the “% stimulation of the GABA currents” value in test [1] (0.1 μM compound) is “+26 ± 6%”. Also, in test [1], the “% stimulation … (100 μM)” value is on record as “+281 ± 35%”. Also, the “blockade of the stimulation by flumazenil (in words)” value in test [1] (printed after the 0.1 μM value) is “completely blocked by flumazenil”. This compound yielded a Displacement of muscimol in test [2] (100 μM) of 100 μM = 0%. For the same compound, the entries for the “Inhibition of the tritiated ligands % TBPS” value in test [3] (0.5 μM) and in test [3] (10 μM) were 5% and 30%, respectively. The “Inhibition of the tritiated ligands % Flu” value in test [5] (0.5 μM, tissue not stated) came to 55%; in test [5] (10 μM, tissue not stated), 90%. Further, the “Inhibition of the tritiated ligands % Flu (100 μM)” value in test [5] (tissue not stated) was determined as 100%.

The inhibition is the drop in the measured response relative to a control, in per cent.
